According to patent US8222299B2, “Organosulfur prodrugs for the prevention and treatment of infectious diseases” (Allium Vitalis Incorporated, priority 2003, dated 2012):
“Also recorded” adds a separate entry of the source.

What was measured:
[1] = mice, cited from earlier work; for protection from acetaminophen poisoning, pretreatment: SAMC 100 mg/kg
[2] = Non-enzymatic reaction of AllylSH with H2O2; type: physicochemical
Excerpt: Thiols are known to have various antioxidant properties, including the ability to scavenge (H2O2), although the specific ability of allyl mercaptan in this regard may not have been previously investigated.

prostaglandin synthase = settings: 50 uM/L; cited from earlier work
[3] = cited from earlier work; for Reaction in Blood Half-life / Reaction in Blood Product (moles): in vitro
CYP2D6 = CYP2D6 (Homo sapiens, UniProt P10635); settings: cited from earlier work
Chain of CYP2D6 (P10635 whole entry): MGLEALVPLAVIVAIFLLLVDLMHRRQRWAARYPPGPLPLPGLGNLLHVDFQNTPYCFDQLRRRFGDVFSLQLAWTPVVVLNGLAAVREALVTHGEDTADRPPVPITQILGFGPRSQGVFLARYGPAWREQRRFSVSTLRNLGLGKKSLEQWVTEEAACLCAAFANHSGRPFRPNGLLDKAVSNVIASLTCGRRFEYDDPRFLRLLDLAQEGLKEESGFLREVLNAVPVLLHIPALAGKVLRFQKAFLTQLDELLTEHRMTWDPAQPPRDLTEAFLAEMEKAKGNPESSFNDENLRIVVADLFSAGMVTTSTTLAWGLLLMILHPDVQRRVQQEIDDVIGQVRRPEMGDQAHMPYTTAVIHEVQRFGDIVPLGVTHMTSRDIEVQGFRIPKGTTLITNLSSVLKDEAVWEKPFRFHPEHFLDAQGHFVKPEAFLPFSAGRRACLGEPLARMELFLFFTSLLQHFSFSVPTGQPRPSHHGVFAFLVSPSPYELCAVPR

[4] = cited from earlier work
pKa and ionization = type: physicochemical; settings: pH of approximately 7
neutrophil influx = settings: intravenous, 150 mg/kg; cited from earlier work
13 types of bacteria = settings: cited from earlier work
Sendai virus = settings: post treatment one hour after infection, measured 24 hours post infection; cited from earlier work
[5] = compounds from Allium grayi Regel and Allium fistulosum; cited from earlier work
uninfected cells = settings: 0.01 mM
[6] = chemiluminescense assay; cited from earlier work
cells = settings: in vitro exposure; cited from earlier work
SARS coronavirus = test: microbe, parasite or virus in culture; settings: Severe acute respiratory syndrome coronavirus, read-out: reduction in the viability of infected cells

C=CCSC[C@H](N)C(=O)O [S-allylcysteine]
protection from acetaminophen poisoning, pretreatment [1]: not nearly as effective

C=CCSSCC=C [DADS, DiAllylDisulfide]
reaction with H2O2 at high concentration ([2]; initial 40 mM H2O2 and 0.85 mM Allyl-SH, FIG. 2): further oxidized to Allicin
inhibition of prostaglandin synthase (prostaglandin synthase): 69%
Reaction in Blood Half-life [3]: 60 min
Reaction in Blood Product (moles) [3]: AllylSH (0.8)
activity of the enzymes (CYP2D6): up to 121 pmol/min/pmol CYP2D6
conversion of DADS to allicin (CYP2D6; in 30 minutes): approximately 30%
water solubility in words [4]: poor water solubility

C=CCS [AllylSH, AllylThiol]
reaction with H2O2 at low concentration ([2]; initial 10 mM H2O2 and 0.85 mM Allyl-SH, FIG. 1): can reduce hydrogen peroxide

C=CCS[S+]([O-])CC=C (stereo not shown) [Allicin, DiAllylThioSulfinate]
time for metabolism to allyl-mercaptan ([3]; blood cells exposed to allicin): less than one minute
Reaction in Blood Half-life [3]: <1 min
Reaction in Blood Product (moles) [3]: AllylSH (1.6)

N[C@@H](CS)C(=O)O [Cys, Cysteine]
fraction ionized (pKa and ionization): approximately 3%

CC(=O)N[C@@H](CS)C(=O)O [NAC, N-acetylcysteine]
IL-1 induced neutrophil influx into lung lavages (neutrophil influx): inhibited

O=C(N[C@H](CO)[C@H](O)c1ccc([N+](=O)[O-])cc1)C(Cl)Cl [Chloramphenicol]
species inhibited (13 types of bacteria; 13 types of bacteria): 12/13
average zone of inhibition (13 types of bacteria): 20 mm

N[C@@H](CCC(=O)N[C@@H](CS)C(=O)NCC(=O)O)C(=O)O [Glutathione]
reduction of the level of infection (Sendai virus): 95%

CCCS[S+]([O-])CCC (stereo not shown) [CH3(CH2)2S˜SO(CH2)2CH3]
nematicidal activity [5]: most effective compound found

C=CCSSC[C@H](N)C(=O)O [SAMC, S-AllylMercaptoCysteine]
toxicity to uninfected cells (uninfected cells): no toxicity
antioxidant or pro-oxidant activity [6]: by far the most effective antioxidant
total glutathione level of cells (cells): significantly increase; also recorded: significant increase
protection from acetaminophen poisoning, pretreatment [1]: protect mice
protection from acetaminophen poisoning, post treatment ([1]; single dose 200 mg/kg shortly after exposure): protective
Reaction in Blood Product (moles) [3]: AllylSH (0.8)
inhibition at 10 µM (SARS coronavirus): 6%
